The test system of one assay is H23 (lung). Kind of assay: CellTiterGlo Cell Proliferation Assay (2D), H23. The assay is classed as cell-based. Conditions: 96 hours. The protocol: (§1) The purpose of this assay is to evaluate the growth of KRas G12C mutant tumor lines following treatment with a test compound. A panel of tumor cell lines harboring KRas G12C or other KRas mutations are collected (Table 25). All cell lines are from ATCC or other sources indicated.
(§2) Typically cells are cultured in RPMI1640 or Dulbecco's modified Eagle's medium (DMEM, GIBCO) supplemented with 10% FBS (GIBCO, Invitrogen). […] The cells are treated with compound for 96 hours, and then are analyzed for viability using the CellTiterGlo® Luminescent Cell Viability Assay® (Promega #G7572 for 2D) according to manufacturer's instructions and an EnVision™ plate reader. Nonlinear regression and sigmoidal dose-response curves are used to calculate the half maximal inhibitory concentration (IC50) with GraphPad Prism 4® software.

The next assay deals with UM-UC-3 (bladder). Put plainly: CellTiterGlo Cell Proliferation Assay (2D), UM-UC-3. Type of assay: cell-based. As to conditions: Homo sapiens, UMUC3, 96 hours. The protocol:
as §1, §2

The subject of a further assay is H1792 (lung). Kind of assay: CellTiterGlo Cell Proliferation Assay (2D), H1792. Type of assay: cell-based. As to conditions: Homo sapiens, NCI-H1792, 96 hours. Here is the method: as §1, §2
Background: Cellular ATP, detected with luciferase, serves as a proxy for viable cell number.

Another assay deals with SW837 (rectum). Kind of assay: CellTiterGlo Cell Proliferation Assay (2D), SW837. Type of assay: cell-based. As to conditions: Homo sapiens, 96 hours. The protocol: as §1, §2
The subject of a further assay is KYSE-410 (esoph). Put plainly: CellTiterGlo Cell Proliferation Assay (2D), KYSE-410. The assay is classed as cell-based. As to conditions: Homo sapiens, 96 hours. Here is the method: as §1, §2
The test system of a further assay is pERK. Kind of assay: In vivo pharmacodynamic effect, pERK Meso Scale Discovery ELISA of tumor lysates, lung cancer H358 xenograft model. The arrangement: species or system mouse. As to conditions: Mus musculus; for inhibition at 12.5 mg/kg / inhibition at 25 mg/kg / inhibition at 50 mg/kg / inhibition at 100 mg/kg: NCI-H358, po, 8 h, read-out: % Inhibition of pERK; for inhibition at 30 mg/kg: read-out: % inhibition of pERK. Here is the method:
(§3) The purpose of these assays is to evaluate in vivo target inhibition of an orally administered test compound. Human lung cancer H358 cells, or pancreatic cancer MiaPaca-2 cells, are implanted into nude mice xenograft tumor models. H358 or MiaPaca-2 cells (10×106 in a 1:1 Matrigel® mix, 0.2 mL total volume) are implanted by subcutaneous injection in hind leg of nude female mice (Harlan Laboratories). […] Treatment is initiated with oral administration (gavage) of a test compound or vehicle (20% Captisol®, 25 mM phosphate, pH 2.0 in 0.2 mL) when the tumor size reaches approximately 300 mg.
(§4) For in vivo target inhibition and PD analysis, tumors are ground by mortar and pestle on dry ice and tumor fragments are added to 800 μL of lysis buffer containing 1% Triton™ X-100, 25 mM Tris pH7.5, 150 mM sodium chloride, 1 mM EDTA, and 1 mM EGTA with Halt protease and phosphatase inhibitor cocktail (Thermo Scientific, cat. no. 1861281) in lysing matrix D tubes (MP Biomedical®, cat. no. 6913-500) with one additional large bead (MP Biomedical® ¼″ ceramic sphere bead cat. no. 6540-412) per tube. Tumor fragments are homogenized in a Thermo Bio101® fast prep (FP120) at setting 4 for […] while cold for a total of 2 times. Lysates are spun at 14,000 rpm for 10 minutes at 4° C. to clarify. Protein estimation is done on the lysate supernatant using a BioRad Dc® protein assay and lysates are diluted in complete lysis/binding buffer from the Ras GTPase Chemi ELISA Kit® (Active Motif, cat. no. 52097). The active KRas ELISA is performed as follows: glutathione-coated ELISA wells are incubated with diluted RAF1-GST in complete lysis/binding buffer for 1 hour at 4° C. with gentle agitation. Wells are washed 3 times with wash buffer and 100 μg of lysates are added to each well and incubated at ambient temperature for 1 hour with mild agitation. The wells are washed an additional 3 times, then primary antibody, diluted in antibody binding buffer, is added to each well. The plates are incubated for 1 hour. The wells are washed 3 more times before adding HRP-conjugated secondary antibody, diluted in antibody binding buffer, to each well. The plates are incubated at ambient temperature for 1 hour. ELISA wells are washed 4 times, chemiluminescent reagent is added and then luminescence is read. For pERK Meso Scale Discovery ELISA, 25 μg of protein containing 0.1% SDS is used; Meso Scale Discovery Whole Cell Lysate Kit for pERK is provided by Meso Scale Discovery.
(§5) The purpose of this assay is to evaluate the dose dependent in vivo target inhibition and pharmacodynamic effects in a lung cancer model. The test compound is dosed in lung cancer H358 mouse xenograft model at a dose range from 12.5 to 100 mg/kg. The tumor samples are collected 8 hours post a single dose. The tumor lysates are prepared and the inhibition of pERKand active KRas is measured as described above.
(§6) The purpose of this assay is to evaluate the time dependent in vivo target inhibition and pharmacodynamic effects in a lung cancer model. […] After a single dose, the tumor samples are harvested at 2, 4, 8, 12 and 24 hour post doing. The tumor lysates are prepared and the inhibition of pERK and active KRas is measured as described above.

A further assay addresses active KRas (Homo sapiens, UniProt P01116, G12C). Kind of assay: In vivo target inhibition, active KRas ELISA of tumor lysates, lung cancer H358 xenograft model. The arrangement: from tissue; host or cells: H358 xenograft tumours grown subcutaneously in nude female mice. Conditions: NCI-H358, mouse; for inhibition at 12.5 mg/kg / inhibition at 25 mg/kg / inhibition at 50 mg/kg / inhibition at 100 mg/kg: po. Here is the method: as §3, §4, §5, §6

Where two headings read alike, the source gives them in different places.

Chain of active KRas (P01116 1-188 isoform P01116-2 G12C): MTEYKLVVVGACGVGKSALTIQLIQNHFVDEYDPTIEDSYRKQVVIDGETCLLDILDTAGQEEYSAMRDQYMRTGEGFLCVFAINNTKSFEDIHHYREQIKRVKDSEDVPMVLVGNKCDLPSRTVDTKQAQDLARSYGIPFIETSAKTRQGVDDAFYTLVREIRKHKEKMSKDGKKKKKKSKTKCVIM

A word on the IC50: it is the concentration that inhibits the measured activity by half. In the case of `C=CC(=O)N1CCN2C(=O)c3cc(Cl)c(-c4ccc(F)c5sc(N)nc45)c(Cl)c3OCC[C@H]2C1` (atropisomer, axis not shown) [Example 1, (13aS)-9-(2-Amino-7-fluoro-1,3-benzothiazol-4-yl)-8,10-dichloro-2-prop-2-enoyl-1,3,4,12,13,13a-hexahydropyrazino[2,1-d][1,5]benzoxazocin-6-one], the IC50 with H23 (lung) was 45 nM; in the assay with UM-UC-3 (bladder), 730 nM; with H1792 (lung), 3010 nM; in the assay on SW837 (rectum), 250 nM; in the assay on KYSE-410 (esoph), 5840 nM. Besides, the inhibition at 10 µM in the assay with H23 (lung) is 98.2%; with UM-UC-3 (bladder), 54.3%; in the assay on H1792 (lung), 63.6%; in the assay on SW837 (rectum) it was 60.8%; in the assay with KYSE-410 (esoph), 64.6%.

`C=CC(=O)N1CCN2C(=O)c3cc(F)c(-c4cccc5sc(N)c(C#N)c45)c(Cl)c3OCC[C@H]2C1` [Example 34, 4-[(13aS)-10-Chloro-8-fluoro-6-oxo-2-prop-2-enoyl-1,3,4,12,13,13a-hexahydropyrazino[2,1-d][1,5]benzoxazocin-9-yl]-2-amino-benzothiophene-3-carbonitrile]: the IC50 in the assay on H23 (lung) was 26 nM; with UM-UC-3 (bladder) it was 510 nM; in the assay with H1792 (lung), 4350 nM; with SW837 (rectum), 200 nM; in the assay with KYSE-410 (esoph) it was more than 10000 nM. The inhibition at 10 µM with H23 (lung) was 96.8%; in the assay on UM-UC-3 (bladder), 56.1%; in the assay with H1792 (lung), 56.7%; with SW837 (rectum), 59.6%; in the assay on KYSE-410 (esoph), 63.2%. The inhibition at 12.5 mg/kg in the assay on pERK (H358 xenograft mice, single oral dose 12.5 mg/kg, 8 hours) worked out at 26.9%; at active KRas (H358 xenograft mice, single oral dose 12.5 mg/kg, 8 hours, read-out: % Inhibition Active RAS) it was 14.2%. The inhibition at 25 mg/kg in the assay with pERK (H358 xenograft mice, single oral dose 25 mg/kg, 8 hours) turned out to be 53.2%; on active KRas (H358 xenograft mice, single oral dose 25 mg/kg, 8 hours, read-out: % Inhibition Active RAS), 35.1%. Besides, the inhibition at 50 mg/kg with pERK (H358 xenograft mice, single oral dose 50 mg/kg, 8 hours) worked out at 54%; at active KRas (H358 xenograft mice, single oral dose 50 mg/kg, 8 hours, read-out: % Inhibition Active RAS) it was 31.5%. Besides, the inhibition at 100 mg/kg is 74.8% in the assay on pERK (H358 xenograft mice, single oral dose 100 mg/kg, 8 hours) and 69.3% on active KRas (H358 xenograft mice, single oral dose 100 mg/kg, 8 hours, read-out: % Inhibition Active RAS).

Regarding `C=CC(=O)N1CCN2C(=O)c3cc(F)c(-c4ccc(F)c5sc(N)c(C#N)c45)c(Cl)c3OCC[C@H]2C1` [Example 35, 4-[(13aS)-10-Chloro-8-fluoro-6-oxo-2-prop-2-enoyl-1,3,4,12,13,13a-hexahydropyrazino[2,1-d][1,5]benzoxazocin-9-yl]-2-amino-7-fluoro-benzothiophene-3-carbonitrile], the IC50 is 24 nM in the assay on H23 (lung); 1090 nM in the assay on UM-UC-3 (bladder); 1410 nM with H1792 (lung); 330 nM in the assay on SW837 (rectum); 7970 nM in the assay on KYSE-410 (esoph). The inhibition at 10 µM in the assay with H23 (lung) turned out to be 98%; in the assay on UM-UC-3 (bladder), 80.4%; with H1792 (lung), 81.7%; in the assay on SW837 (rectum), 64.2%; with KYSE-410 (esoph), 68.3%. Moreover, the inhibition at 30 mg/kg in the assay on pERK (NCI-H358, 2 h) was determined as 67.9%; in the assay on pERK (NCI-H358, 4 h), 73.2%; in the assay with pERK (NCI-H358, 8 h), 82.6%; in the assay with pERK (NCI-H358, 12 h) it was 71.1%; with pERK (NCI-H358, 24 h) it was 65.2%; at active KRas (read-out: % Inhibition of Active Ras, H358 model, single dose 30 mg/kg, 2 h) it was 7.6%. In addition, the inhibition at 30 mg/kg at active KRas (read-out: % Inhibition of Active Ras, H358 model, single dose 30 mg/kg, 4 h) worked out at 65.7%; on active KRas (read-out: % Inhibition of Active Ras, H358 model, single dose 30 mg/kg, 8 h) it was 80.2%; on active KRas (read-out: % Inhibition of Active Ras, H358 model, single dose 30 mg/kg, 12 h), 39.3%; at active KRas (read-out: % Inhibition of Active Ras, H358 model, single dose 30 mg/kg, 24 h), 54.9%. The inhibition at 12.5 mg/kg was 82.2% with pERK and 81% at active KRas (read-out: % Inhibition Active RAS, H358 xenograft mice, single oral dose 12.5 mg/kg, 8 hours). Moreover, the inhibition at 25 mg/kg with pERK came to 85.3%; on active KRas (read-out: % Inhibition Active RAS, H358 xenograft mice, single oral dose 25 mg/kg, 8 hours) it was 73.4%. Also, the inhibition at 50 mg/kg with pERK amounted to 90.6%; at active KRas (read-out: % Inhibition Active RAS, H358 xenograft mice, single oral dose 50 mg/kg, 8 hours), 94%. The inhibition at 100 mg/kg was determined as 88.9% with pERK and 91.9% on active KRas (read-out: % Inhibition Active RAS, H358 xenograft mice, single oral dose 100 mg/kg, 8 hours).

Values taken from patent publication US20230339968A1, “KRAS Gl2C INHIBITORS” (Eli Lilly and Company, priority 2019, published 2023).
